Results on 22 molecules are retold here after ChEMBL document CHEMBL1250514, “Fragment-based drug discovery applied to Hsp90. Discovery of two lead series with high ligand efficiency” (J Med Chem, 2010).

As usually defined, the Kd is the equilibrium constant for the complex coming apart.

The target in this experiment is Heat shock protein HSP90 (Homo sapiens, UniProt P07900+P08238).
Description: Binding affinity to human N-terminal ATPase domain of Hsp90 by isothermal titration calorimetry
In turn, `Nc1nc(Cl)cc(-c2ccccc2)n1` showed a Kd of 2 µM. That is a single-digit micromolar value.

Take `COc1cccc(OC)c1-c1cc(Cl)nc(N)n1`: the Kd turned out to be 0.068 µM.

`COc1cccc(Cl)c1-c1cc(Cl)nc(N)n1`: the Kd is 0.036 µM.

For `Nc1nc(Cl)cc(-c2ccccc2Cl)n1`, the Kd came out at 0.083 µM.

For `Nc1nc(Cl)cc(-c2ccc(Cl)cc2Cl)n1`, the Kd is 0.012 µM.

For the molecule `COc1ccc(Cl)c(-c2cc(Cl)nc(N)n2)c1`, the Kd turned out to be 0.048 µM. Compared with the last molecule, the Kd is about 4-fold higher.

In turn, `COc1cc(-c2cc(Cl)nc(N)n2)c(Cl)cc1Cl` returned a Kd of 0.0063 µM.

With `COc1ccc(-c2cc(Cl)nc(N)n2)c(Cl)c1`, the Kd was 0.028 µM.

`CCN(CC)C(=O)c1ccc(O)c(Cl)c1`: the Kd worked out at 1130 µM.

For `CCc1cc(C(=O)N(CC)CC)ccc1O`, the Kd was found to be 45 µM.

With `CCN(CC)C(=O)c1ccc(O)c(C(C)C)c1`, the Kd turned out to be 7 µM.

In turn, `CCN(CC)C(=O)c1ccc(O)c(C(C)(C)C)c1` came in with a Kd of 8.6 µM.

Molecule `CCN(CC)C(=O)c1cc(C(C)C)ccc1O` returned a Kd of 51 µM.

`CCN(CC)C(=O)c1cc(C(C)(C)C)ccc1O` came in with a Kd of 134 µM.

`CC(C)(C)c1cc(C(=O)N2CCC(O)CC2)ccc1O`: the Kd was found to be 2.3 µM.

The molecule `CC(C)c1cc(C(=O)N2CCOCC2)ccc1O` gave a Kd of 0.4 µM.

Regarding `CC(C)c1cc(C(=O)N2CCOCC2)c(O)cc1O`, the Kd was determined as 0.011 µM.

The molecule `CC(=O)N1CCN(C(=O)c2ccc(O)c(C(C)(C)C)c2)CC1` showed a Kd of 2.5 µM.

Consider `CC(C)(C)c1cc(C(=O)N2CCN(c3ccccn3)CC2)ccc1O`, for which the Kd came to 0.25 µM. This Kd is about 10-fold lower than that of the molecule before.

As to `CC(C)(C)c1cc(C(=O)N2CCc3ccccc3C2)ccc1O`, the Kd came out at 2.5 µM. This Kd lies about 10-fold higher than the previous one.

`CC(C)c1cc(C(=O)N2Cc3ccccc3C2)ccc1O`: the Kd stood at 0.068 µM.

`CC(C)c1cc(C(=O)N2CCc3ccccc3C2)ccc1O` yielded a Kd of 0.128 µM.
